Data on 19 molecules can be found in patent US20130109682A1, “CYCLIC ETHER COMPOUNDS USEFUL AS KINASE INHIBITORS” (NOVARTIS AG, priority 2010, published 2013).

Where two headings read alike, the source gives them in different places.

Assay [1] has as its target cABLT315 kinase (Homo sapiens, UniProt P00519). The assay can be described thus: cABLT315 kinase Caliper assay. In kind it is biochemical. The procedure: PKCα and cABLT315 Kinase Caliper Assays
Assays were performed in 384 well microtiter plates. Each assay plate contained 8-point serial dilutions for test compounds, as well as two 16-point serial dilutions of staurosporine as reference compound, plus 16 high- and 16 low controls. Liquid handling and incubation steps were done on a Thermo CatX workstation equipped with a Innovadyne Nanodrop Express. Between pipetting steps, tips were cleaned in wash cycles using wash buffer. Plates with terminated kinase reactions were transferred to the Caliper LC3000 workstations for reading. Phosphorylated and unphosphorylated peptides were separated using the Caliper microfluidic mobilitishift technology and Kinase activities were calculated from the amounts of formed phospho-peptide.
Kinase reactions were prepared in 384 low volume plates by the following sequence:
1. 0.05 μA Compound (start with 1.8 mM in 90% DMSO/10% H2O)
2. +4.5 μl 2× peptide/ATP solution
3. +4.5 μl 2× enzyme solution
4. Incubate for 60 min at 30° C.
4. +16 μl stop/run buffer
Independent of the kinase, all reactions were done performed in 50 mM HEPES, pH 7.5, 1 mM DTT, 0.02% Tween20, 0.02% BSA, and 0.6% DMSO. For cABLT315 assay specific details were as follows: [cABLT315 kinase]=2.4 nM, [ATP]=10 uM, [peptide]=2 uM, [Mg]=10 mM. For PKCα, assay specific details were as follows: [kinase]=0.012 nM, [ATP]=17 uM, [peptide]=1 uM, [Mg]=7 mM, [Ca]=0.2 mM.

In assay [2] the target is T1, hERG (Homo sapiens, UniProt Q12809).
T1 construct: host or cells: crude membrane suspension
T1 sequence (Q12809 whole entry): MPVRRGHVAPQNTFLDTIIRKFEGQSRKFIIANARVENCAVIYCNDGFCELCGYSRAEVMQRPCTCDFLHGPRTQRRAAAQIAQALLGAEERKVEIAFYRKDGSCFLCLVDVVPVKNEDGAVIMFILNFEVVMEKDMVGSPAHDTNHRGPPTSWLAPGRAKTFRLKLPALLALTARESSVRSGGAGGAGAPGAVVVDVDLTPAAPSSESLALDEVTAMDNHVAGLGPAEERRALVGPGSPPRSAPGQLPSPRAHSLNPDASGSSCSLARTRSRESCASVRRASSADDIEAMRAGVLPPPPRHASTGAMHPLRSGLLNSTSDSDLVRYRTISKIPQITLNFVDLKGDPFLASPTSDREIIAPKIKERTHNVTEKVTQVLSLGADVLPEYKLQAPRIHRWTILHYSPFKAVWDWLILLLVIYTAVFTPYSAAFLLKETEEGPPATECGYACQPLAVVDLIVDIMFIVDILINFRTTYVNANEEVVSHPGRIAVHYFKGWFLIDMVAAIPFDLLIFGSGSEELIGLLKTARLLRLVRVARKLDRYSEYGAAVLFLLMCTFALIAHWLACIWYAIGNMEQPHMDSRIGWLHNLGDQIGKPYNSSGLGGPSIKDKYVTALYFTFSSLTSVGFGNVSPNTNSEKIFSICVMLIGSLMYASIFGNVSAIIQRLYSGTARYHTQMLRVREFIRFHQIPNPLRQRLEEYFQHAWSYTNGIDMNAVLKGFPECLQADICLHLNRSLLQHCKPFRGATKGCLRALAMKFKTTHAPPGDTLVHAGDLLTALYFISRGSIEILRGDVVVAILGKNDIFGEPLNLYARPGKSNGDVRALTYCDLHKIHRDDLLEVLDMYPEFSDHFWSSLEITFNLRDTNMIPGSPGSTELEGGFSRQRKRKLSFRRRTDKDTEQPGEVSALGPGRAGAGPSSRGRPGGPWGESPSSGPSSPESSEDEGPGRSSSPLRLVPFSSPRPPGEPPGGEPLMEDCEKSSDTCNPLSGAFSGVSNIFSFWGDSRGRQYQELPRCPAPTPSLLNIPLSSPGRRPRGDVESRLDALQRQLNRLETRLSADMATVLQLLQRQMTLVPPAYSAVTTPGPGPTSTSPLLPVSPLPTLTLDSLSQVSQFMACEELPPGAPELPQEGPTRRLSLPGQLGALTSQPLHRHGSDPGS
The assay can be described thus: hERG binding assay ([3H] dofetilide displacement). As to conditions: read-out: HERGdof IC50. In outline: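 Displacement of 2.5 nM [3H]dofetilide from crude hERG membranes (ca. 15 μg protein) by filtration binding, 90 min at room temperature, 0.5% DMSO final. Non-specific binding defined with 25 μM terfenadine; compounds run as 9-point duplicate curves from 30 μM to 3 nM.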
(Block of hERG is tested as a sign of cardiac risk.)

Assay [3] addresses PIM3 (Homo sapiens, UniProt Q86V86). The assay can be described thus: KinaseGlo Pim3 ATP depletion assay. In kind it is biochemical. In a few lines: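 Kinase was preincubated 15 min with BAD peptide in HEPES pH 7.5/MgCl2/DTT/BSA before ATP was added. Final concentrations were 40 μM ATP, 100 μM BAD peptide and 2.5% DMSO, with 5 nM enzyme. The reaction ran to ~50% ATP depletion and remaining ATP was read by KinaseGlo Plus luminescence.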
In general terms: Kinase-Glo measures the ATP left after a reaction by luminescence.

Assay [4] concerns the target KDR kinase (Homo sapiens, UniProt P35968). Put plainly: KDR kinase inhibition assay (LanthaScreen TR-FRET). The class given is biochemical. As to conditions: TR-FRET assay. The procedure: KDR Kinase Inhibition Assay
LanthaScreen™ is the detection of Time-Resolved Fluorescence Resonance Energy Transfer (TR-FRET) using lanthanide chelates to measure interactions between various binding partners. The application of TR-FRET to assay kinase activity was first described by Mathis (1995). A TR-FRET assay was used to measure KDR kinase inhibitory activity. The assay panel was run on a Biomek FX liquid handling workstations. To the assay plates containing 50 nL compound or control solutions, 4.5 μL of buffer A (50 mM TRIS-HCl pH 7.4, 2 mM DTT, 0.02% Tween 20, 0.02 mM Na3VO4, H2O nanpure) including a generic concentration of ATP (2 μM f.c.) was added per well, followed by 4.5 μL of buffer B (4 uM ATP in Buffer A) including a generic concentration of polyEAY (50 nM f.c.), KDR kinase, and divalent cations. Final concentration of kinase and cations were: [KDR kinase]=0.38 nM, [Mg]=10 mM, [Ca]=1 mM. After 1 hour of incubation the kinase reactions were stopped by the addition of 4.5 μL of stop solution D (50 mM EDTA, 20 mM TRIS-HCl pH 7.4, 0.04% NP-40) immediately followed by 4.5 μL of buffer A (50 mM TRIS-HCl pH 7.4, 2 mM DTT, 0.02% Tween 20, 0.02 mM Na3VO4, H2O nanpure) including the Tb-labeled P-20 antibody to give a total detection volume of 18 μL. After an incubation time of 45 min in the dark, the plates were transferred into the Pherastar fluorescence reader for counting. The effect of compound on the enzymatic activity was obtained from the linear progress curves and determined from one reading (end point measurement).

Chain of KDR kinase (P35968 20-1356): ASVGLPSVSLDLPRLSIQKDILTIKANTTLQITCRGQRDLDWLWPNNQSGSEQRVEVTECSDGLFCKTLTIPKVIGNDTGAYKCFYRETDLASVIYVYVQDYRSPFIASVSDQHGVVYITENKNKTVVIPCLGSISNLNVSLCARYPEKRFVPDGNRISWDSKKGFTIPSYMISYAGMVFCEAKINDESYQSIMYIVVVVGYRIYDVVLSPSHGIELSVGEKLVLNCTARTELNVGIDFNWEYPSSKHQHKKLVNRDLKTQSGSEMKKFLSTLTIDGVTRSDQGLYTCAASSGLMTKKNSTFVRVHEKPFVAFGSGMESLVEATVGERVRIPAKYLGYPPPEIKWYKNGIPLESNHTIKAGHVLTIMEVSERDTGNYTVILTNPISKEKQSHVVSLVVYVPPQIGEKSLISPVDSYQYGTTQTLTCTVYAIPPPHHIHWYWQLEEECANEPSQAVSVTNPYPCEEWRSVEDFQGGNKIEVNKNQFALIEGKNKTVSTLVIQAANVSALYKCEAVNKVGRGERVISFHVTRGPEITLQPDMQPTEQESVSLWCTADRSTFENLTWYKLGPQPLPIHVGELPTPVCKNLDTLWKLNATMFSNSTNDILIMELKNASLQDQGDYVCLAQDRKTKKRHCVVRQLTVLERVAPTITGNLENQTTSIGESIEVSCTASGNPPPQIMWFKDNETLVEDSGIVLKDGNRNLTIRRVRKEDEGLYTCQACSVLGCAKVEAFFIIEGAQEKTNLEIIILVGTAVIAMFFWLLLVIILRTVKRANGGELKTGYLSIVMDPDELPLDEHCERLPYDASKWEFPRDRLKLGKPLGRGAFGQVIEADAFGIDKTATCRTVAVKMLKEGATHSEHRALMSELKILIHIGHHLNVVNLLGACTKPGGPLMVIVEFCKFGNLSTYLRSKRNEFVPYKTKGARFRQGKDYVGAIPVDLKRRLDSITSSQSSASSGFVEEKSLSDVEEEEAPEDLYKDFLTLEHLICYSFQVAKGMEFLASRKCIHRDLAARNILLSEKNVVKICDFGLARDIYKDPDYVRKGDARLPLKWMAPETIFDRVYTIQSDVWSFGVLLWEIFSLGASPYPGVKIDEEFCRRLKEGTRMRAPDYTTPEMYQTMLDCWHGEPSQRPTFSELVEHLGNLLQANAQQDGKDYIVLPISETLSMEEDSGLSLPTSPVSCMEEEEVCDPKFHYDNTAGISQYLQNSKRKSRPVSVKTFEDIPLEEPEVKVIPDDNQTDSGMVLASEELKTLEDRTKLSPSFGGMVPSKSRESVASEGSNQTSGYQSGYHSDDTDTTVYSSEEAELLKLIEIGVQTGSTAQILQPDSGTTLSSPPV

In the case of `CC[C@]1(O)[C@H](O)C[C@H](c2ccncc2NC(=O)c2nc(-c3c(F)cccc3F)ncc2N)O[C@@H]1C` [Example 143, 5-amino-2-(2,6-difluorophenyl)-N-(4-((2R,4R,5S,6R)-5-ethyl-4,5-dihydroxy-6-methyltetrahydro-2H-pyran-2-yl)pyridin-3-yl)pyrimidine-4-carboxamide], the half-maximal inhibitory concentration (IC50) in assay [1] is more than 10 µM; in assay [2] (dofetilide displacement), more than 30 µM; in assay [3], 0.0024 µM.

On to `Nc1ncc(-c2ccccc2)nc1C(=O)Nc1cnccc1[C@H]1C[C@@H](O)[C@@]2(O)CCCC[C@H]2O1` [Example 173, 3-amino-N-(4-((2R,4R,4aS,8aR)-4,4a-dihydroxyoctahydro-2H-chromen-2-yl)pyridin-3-yl)-6-phenylpyrazine-2-carboxamide], for which the IC50 in assay [1] was 0.07 µM; in assay [2] (dofetilide displacement), more than 30 µM; in assay [3] it was 0.0036 µM.

For the molecule `Nc1ncc(-c2ccccc2)nc1C(=O)Nc1cnccc1[C@@H]1C[C@H](O)[C@]2(O)CCCC[C@@H]2O1` [Example 176, 3-amino-N-(4-((2S,4S,4aR,8aS)-4,4a-dihydroxyoctahydro-2H-chromen-2-yl)pyridin-3-yl)-6-phenylpyrazine-2-carboxamide], the IC50 in assay [1] was 7.4 µM; in assay [2] (dofetilide displacement), more than 30 µM; in assay [3] it was 0.202 µM.

Turning to `O=C(Nc1cnccc1[C@H]1C[C@@H](O)[C@@]2(O)CCCC[C@H]2O1)c1c[nH]cc(-c2ccccc2)c1=O` [Example 178, N-(4-((2R,4R,4aS,8aR)-4,4a-dihydroxyoctahydro-2H-chromen-2-yl)pyridin-3-yl)-4-oxo-5-phenyl-1,4-dihydropyridine-3-carboxamide], the IC50 in assay [1] is more than 10 µM; in assay [2] (dofetilide displacement) it was more than 30 µM; in assay [3], 0.124 µM.

As to `C[C@H]1O[C@@H](c2ccncc2NC(=O)c2ccc(F)c(-c3c(F)cccc3F)n2)C[C@@H](N)[C@]1(C)O` [Example 219, N-(4-((2R,4R,5S,6R)-4-amino-5-hydroxy-5,6-dimethyltetrahydro-2H-pyran-2-yl)pyridin-3-yl)-6-(2,6-difluorophenyl)-5-fluoropicolinamide], the IC50 in assay [1] (Caliper assay) is more than 10 µM; in assay [2] (hERG binding, dofetilide), 16 µM.

For the molecule `N[C@@H]1C[C@H](c2ccncc2NC(=O)c2ccc(F)c(-c3c(F)cccc3F)n2)O[C@@H]2CCC[C@H]12` [Example 224, N-(4-((2R,4R,4aR,7aR)-4-aminooctahydrocyclopenta[b]pyran-2-yl)pyridin-3-yl)-6-(2,6-difluorophenyl)-5-fluoropicolinamide], the IC50 is more than 10 µM in assay [1] (Caliper assay) and 2 µM in assay [2] (hERG binding, dofetilide).

Turning to `N[C@H]1C[C@@H](c2ccncc2NC(=O)c2csc(-c3c(F)cccc3F)n2)O[C@H]2CCC[C@H]21` [Example 230, N-(4-((2S,4S,4aS,7aS)-4-aminooctahydrocyclopenta[b]pyran-2-yl)pyridin-3-yl)-2-(2,6-difluorophenyl)thiazole-4-carboxamide], the IC50 in assay [1] (Caliper assay) was more than 10 µM; in assay [2] (hERG binding, dofetilide), 4 µM.

`CC[C@]1(O)[C@H](N)C[C@H](c2ccncc2NC(=O)c2ccc(F)c(-c3c(F)cccc3F)n2)O[C@@H]1C` [Example 232, N-(4-((2R,4R,5S,6R)-4-amino-5-ethyl-5-hydroxy-6-methyltetrahydro-2H-pyran-2-yl)pyridin-3-yl)-6-(2,6-difluorophenyl)-5-fluoropicolinamide]: the IC50 was more than 10 µM in assay [1] (Caliper assay) and 5 µM in assay [2] (hERG binding, dofetilide).

For the molecule `Nc1cc(F)c(-c2c(F)cccc2F)nc1C(=O)Nc1cnccc1[C@H]1C[C@@H](N)[C@@]2(O)CCCC[C@H]2O1` [Example 238, 3-amino-N-(4-((2R,4R,4aS,8aR)-4-amino-4a-hydroxyoctahydro-2H-chromen-2-yl)pyridin-3-yl)-6-(2,6-difluorophenyl)-5-fluoropicolinamide], the IC50 is more than 10 µM in assay [1] (Caliper assay) and 4 µM in assay [2] (hERG binding, dofetilide).

With `COc1cc(F)c(-c2nc(C(=O)Nc3cnccc3[C@H]3C[C@@H](N)[C@](C)(O)[C@@H](C)O3)ccc2F)c(F)c1` [Example 242, N-(4-((2R,4R,5S,6R)-4-amino-5-hydroxy-5,6-dimethyltetrahydro-2H-pyran-2-yl)pyridin-3-yl)-6-(2,6-difluoro-4-methoxyphenyl)-5-fluoropicolinamide], the IC50 in assay [1] (Caliper assay) was more than 10 µM; in assay [2] (hERG binding, dofetilide), 6 µM.

Turning to `CC1(C)C[C@@H](N)C[C@H](c2ccncc2NC(=O)c2nc(-c3ccccc3)cnc2N)O1` [Example 296, 3-amino-N-(4-((2R,4S)-4-amino-6,6-dimethyltetrahydro-2H-pyran-2-yl)pyridin-3-yl)-6-phenylpyrazine-2-carboxamide], the IC50 in assay [1] (Caliper assay) stood at 0.11 µM.

Turning to `CC1(C)C[C@H](N)C[C@@H](c2ccncc2NC(=O)c2nc(-c3ccccc3)cnc2N)O1` [Example 297, 3-amino-N-(4-((2S,4R)-4-amino-6,6-dimethyltetrahydro-2H-pyran-2-yl)pyridin-3-yl)-6-phenylpyrazine-2-carboxamide], in assay [1] (Caliper assay), the IC50 worked out at 0.86 µM.

In assay [4], `C[C@@]1(O)[C@@H](N)C[C@@H](c2ccncc2NC(=O)c2nc(-c3ccccc3)cnc2N)OC12CC2` [Example 350, 3-amino-N-(4-((5S,7S,8R)-7-amino-8-hydroxy-8-methyl-4-oxaspiro[2.5]octan-5-yl)pyridin-3-yl)-6-phenylpyrazine-2-carboxamide] showed an IC50 of 0.22 µM.

As to `C[C@]1(O)[C@@H](N)C[C@H](c2ccncc2NC(=O)c2nc(-c3ccccc3)cnc2N)OC12CC2` [Example 351, 3-amino-N-(4-((5R,7S,8S)-7-amino-8-hydroxy-8-methyl-4-oxaspiro[2.5]octan-5-yl)pyridin-3-yl)-6-phenylpyrazine-2-carboxamide], in assay [4], the IC50 is 0.007 µM.

Molecule `C[C@@]1(O)[C@H](N)C[C@@H](c2ccncc2NC(=O)c2nc(-c3ccccc3)cnc2N)OC12CC2` [Example 352, 3-amino-N-(4-((5S,7R,8R)-7-amino-8-hydroxy-8-methyl-4-oxaspiro[2.5]octan-5-yl)pyridin-3-yl)-6-phenylpyrazine-2-carboxamide] displayed an IC50 in assay [4] of 0.028 µM.

Molecule `C[C@]1(O)[C@H](N)C[C@H](c2ccncc2NC(=O)c2nc(-c3ccccc3)cnc2N)OC12CC2` [Example 353, 3-amino-N-(4-((5R,7R,8S)-7-amino-8-hydroxy-8-methyl-4-oxaspiro[2.5]octan-5-yl)pyridin-3-yl)-6-phenylpyrazine-2-carboxamide] had an IC50 in assay [4] of 0.25 µM.

`CC(C)(C)[C@H]1O[C@@H](c2ccncc2NC(=O)c2nc(-c3ccccc3)cnc2N)C[C@@H](N)[C@@H]1O` [Example 354, 3-amino-N-(4-((2R,4R,5S,6R)-4-amino-6-tert-butyl-5-hydroxytetrahydro-2H-pyran-2-yl)pyridin-3-yl)-6-phenylpyrazine-2-carboxamide]: the IC50 in assay [4] was 0.062 µM.

In assay [4], `CC(C)(C)[C@@H]1O[C@H](c2ccncc2NC(=O)c2nc(-c3ccccc3)cnc2N)C[C@H](N)[C@H]1O` [Example 355, 3-amino-N-(4-((2S,4S,5R,6S)-4-amino-6-tert-butyl-5-hydroxytetrahydro-2H-pyran-2-yl)pyridin-3-yl)-6-phenylpyrazine-2-carboxamide] yielded an IC50 of 6.4 µM.

For `CC(C)[C@H]1O[C@@H](c2ccncc2NC(=O)c2nc(-c3ccccc3)cnc2N)C[C@@H](N)[C@@H]1O` [Example 356, 3-amino-N-(4-((2R,4R,5S,6R)-4-amino-5-hydroxy-6-isopropyltetrahydro-2H-pyran-2-yl)pyridin-3-yl)-6-phenylpyrazine-2-carboxamide], 0.043 µM corresponded to half-maximal inhibition in assay [4] (IC50).

The term IC50 denotes the concentration that gives 50% inhibition.
